Test results as given in US12583851B2, “Heteroaryl-substituted pyrazine derivatives as pesticides” (Elanco Animal Health GmbH, priority 2019, dated 2026).

How the values were obtained:
Type in all cases: in vivo
[1] = system: adult brown dog ticks (Rhipicephalus sanguineus); assay: Rhipicephalus sanguineus in-vitro contact test, adult brown dog ticks; conditions: 48 h, 5 μg/cm^2 (=500 g/ha), after 48 hours, read-out: efficacy (ticks dead or moribund)
Method in brief: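 Acetone solution coated on glass tube inner walls (900 ppm, giving 5 μg/cm^2); after drying, 5–10 adult ticks added and kept 48 h at room temperature. Efficacy scored as percent dead or moribund, i.e., ticks unable to climb away on a 45–50 °C heating plate within 5 min.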

[2] = system: adult mosquitoes Anopheles funestus strain FUMOZ-R; assay: Anopheles funestus test (ANPHFU surface treatment & contact assay); conditions: surface concentration 20 mg/m^2, 30 minutes exposure, 24 hours after contact, read-out: mortality (efficacy)
Method: Anopheles funestus Test (ANPHFU Surface Treatment & Contact Assay)
(§1) Solvent: Aceton+2000 ppm rapeseed oil methyl ester (RME)
(§2) In order to produce a sufficient, active ingredient containing solution it is necessary to solve the test compound in the solvent-mix (acetone at 2 mg/ml/RME 2000 ppm). This solution is pipetted onto a glazed tile and after evaporation of the acetone, adult mosquitoes of the species Anopheles funestus strain FUMOZ-R (Hunt et al., Med. Vet. Entomol. 2005 Sep. 19(3): 271-275) are placed onto the dried surface. The exposure time is 30 minutes.
(§3) Mortality in percent (%) is determined 24 hours after contact of the insects to the treated surface. 100% mortality means that all tested insects are dead, whereas 0% means that no insect died.

[3] = system: adult flies Musca domestica strain WHO-N; assay: Musca domestica test (MUSCDO surface treatment & contact assay); conditions: surface concentration 4 mg/m^2, 30 minutes exposure, 24 hours after contact, read-out: mortality (efficacy)
Method: Musca domestica Test (MUSCDO Surface Treatment & Contact Assay)
as §1
as §2, with “flies” for “mosquitoes”, “Musca domestica” for “Anopheles funestus”, “WHO-N” for “FUMOZ-R (Hunt et al., Med. Vet. Entomol. 2005 Sep. 19(3): 271-275)”
as §3

[4] = system: adult Blattella germanica strain PAULINIA; assay: Blattella germanica test (BLTTGE surface treatment & contact assay); conditions: surface concentration 20 mg/m^2, 30 minutes exposure, 24 hours after contact, read-out: mortality (efficacy)
Method: Blattella germanica Test (BLTTGE Surface Treatment & Contact Assay)
as §1
as §2, with “animals” for “mosquitoes”, “Blattella germanica” for “Anopheles funestus”, “PAULINIA” for “FUMOZ-R (Hunt et al., Med. Vet. Entomol. 2005 Sep. 19(3): 271-275)”
as §3

[5] = system: Rhipicephalus (Boophilus) microplus larvae (strain Parkhurst, resistant against synthetic pyrethroids); assay: Rhipicephalus (Boophilus) microplus in-vitro contact test, larval cattle tick; conditions: after 48 hours, read-out: efficacy (larvae dead or moribund)
Method in brief: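 Pyrethroid-resistant larvae (strain Parkhurst), 20–50 per tube, exposed by contact to a dried acetone film of compound (5 μg/cm² at 900 ppm) for 48 h at 27 °C and 85% humidity. Percent dead or moribund larvae scored from negative geotactic behaviour.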

[6] = system: adult mosquitoes Aedes aegypti strain MONHEIM; assay: Aedes aegypti test (AEDSAE surface treatment & contact assay); conditions: 24 hours after contact, read-out: mortality (efficacy)
Method: Aedes aegypti Test (AEDSAE Surface Treatment & Contact Assay)
as §1
as §2, with “Aedes aegypti” for “Anopheles funestus”, “MONHEIM” for “FUMOZ-R (Hunt et al., Med. Vet. Entomol. 2005 Sep. 19(3): 271-275)”
as §3

[7] = system: adult cat fleas (Ctenocephalides felis); assay: Ctenocephalides felis in-vitro contact test, adult cat flea; conditions: 1 μg/cm^2 (=100 g/ha), after 48 hours, read-out: efficacy (fleas dead or moribund)
Method in brief: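 Acetone solution coated onto glass tube walls; 900 ppm gives 5 μg/cm². Once dry, 5–10 adult fleas per tube held at room temperature for 48 h. Efficacy (%) is the share of fleas dead or moribund, i.e. unable to climb away on a 45–50° C heating plate.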

[8] = system: adult engorged female ticks (Rhipicephalus microplus); assay: Rhipicephalus (Boophilus) microplus injection test; conditions: 168 h, 4 μg/animal, egg deposition after 7 days, read-out: efficacy (infertile eggs)
Method in brief: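 Compound in DMSO (10 mg per 0.5 mL, then diluted with DMSO to test concentration); 1 μL injected into the abdomen of each of five engorged females, then held in a climate chamber. Fertile egg deposition checked at 7 days; efficacy 100% = all eggs infertile, 0% = all fertile.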

[9] = system: adult unfed cat fleas (Ctenocephalides felis); assay: Ctenocephalides felis oral test; conditions: 48 h, 100 ppm in citrated cattle blood, after 2 days
Method in brief: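 About 20 adult unfed cat fleas fed through parafilm on citrated cattle blood containing compound (from a DMSO concentrate). Blood held at 37° C, fleas at room temperature. Mortality in % scored after 2 days.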

CC(NC(=O)c1cc(F)cc(C(F)(F)F)c1)c1nccnc1-c1ncccn1 (racemic) [Example I-7, (rac)-3-Fluoro-N-(1-(3-(pyrimidin-2-yl)pyrazin-2-yl)ethyl)-5-(trifluoromethyl)benzamide]
pest or weed control at 5 µg/cm2, 500 g/ha [1]: 100%
mortality at 20 mg/m2 [2]: 80 to 100%
mortality at 4 mg/m2 [3]: 80 to 100%
mortality at 20 mg/m2 [4]: 80 to 100%
pest or weed control at 1 µg/cm2, 100 g/ha ([5]; 1 μg/cm^2 (=100 g/ha)): 100%
pest or weed control at 5 µg/cm2, 500 g/ha ([5]; 5 μg/cm^2 (=500 g/ha)): 100%
mortality at 4 mg/m2 ([6]; surface concentration 4 mg/m^2, 30 minutes exposure): 80 to 100%
mortality at 20 mg/m2 ([6]; surface concentration 20 mg/m^2, 30 minutes exposure): 80 to 100%
pest or weed control at 1 µg/cm2, 100 g/ha [7]: 90%
pest or weed control at 0.004 mg [8]: 100%
mortality at 100 ppm [9]: 100%
